Results taken from the supplement of paper PMC10307832.

Assays:
Experiment in all cases: relative viability (nuclei count vs DMSO), 5 days (fraction); higher = more cells survive
XMD8-85 + Trametinib = compound: CN1CCN(CC1)C2=CC(=C(C=C2)NC3=NC=C4C(=N3)N(C5=CC=CC=C5C(=O)N4C)C)OC [XMD8-85] + CC(=O)Nc1cccc(-n2c(=O)n(C3CC3)c(=O)c3c(Nc4ccc(I)cc4F)n(C)c(=O)c(C)c32)c1 [Trametinib] (partner 0.02 µM)
Summary of the method: (§1)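 Values are medians from duplicate plates. Each reflects relative viability, defined as the nuclei count of treated wells over that of vehicle wells. Lung cancer cell lines in 1536-well plates were pin-tool dosed one day after seeding with one drug alone or with a fixed anchor-drug dose plus five library-drug doses (not always all listed) in √10 steps, then fixed, stained and imaged at 4× after 5 days.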

XMD8-85 + Phenformin = compound: CN1CCN(CC1)C2=CC(=C(C=C2)NC3=NC=C4C(=N3)N(C5=CC=CC=C5C(=O)N4C)C)OC [XMD8-85] + N=C(N)NC(=N)NCCc1ccccc1 [Phenformin] (partner 250 µM)
Summary of the method: as §1

4EGI-1 + Vorinostat = compound: O=C(O)C(Cc1ccccc1[N+](=O)[O-])=NNc1nc(-c2ccc(Cl)c(Cl)c2)cs1 (mixture of isomers) [4EGI-1] + O=C(CCCCCCC(=O)Nc1ccccc1)NO [Vorinostat] (partner 1 µM)
Summary of the method: as §1

XMD8-85 + Alpelisib = compound: CN1CCN(CC1)C2=CC(=C(C=C2)NC3=NC=C4C(=N3)N(C5=CC=CC=C5C(=O)N4C)C)OC [XMD8-85] + Cc1nc(NC(=O)N2CCC[C@H]2C(N)=O)sc1-c1ccnc(C(C)(C)C(F)(F)F)c1 [Alpelisib] (partner 2 µM)
Summary of the method: as §1

| Cell Line | relative viability (XMD8-85 + Trametinib; first compound 0.08 µM) | relative viability (XMD8-85 + Trametinib; first compound 0.253 µM) | relative viability (XMD8-85 + Trametinib; first compound 0.8 µM) | relative viability (XMD8-85 + Trametinib; first compound 2.53 µM) | relative viability (XMD8-85 + Trametinib; first compound 8 µM) | relative viability (XMD8-85 + Phenformin; first compound 0.08 µM) | relative viability (XMD8-85 + Phenformin; first compound 0.253 µM) | relative viability (XMD8-85 + Phenformin; first compound 0.8 µM) | relative viability (XMD8-85 + Phenformin; first compound 2.53 µM) | relative viability (4EGI-1 + Vorinostat; first compound 0.5 µM) | relative viability (4EGI-1 + Vorinostat; first compound 1.581 µM) | relative viability (4EGI-1 + Vorinostat; first compound 5 µM) | relative viability (4EGI-1 + Vorinostat; first compound 15.81 µM) | relative viability (4EGI-1 + Vorinostat; first compound 50 µM) | relative viability (XMD8-85 + Phenformin; first compound 8 µM) | relative viability (XMD8-85 + Alpelisib; first compound 0.08 µM) | relative viability (XMD8-85 + Alpelisib; first compound 0.253 µM) | relative viability (XMD8-85 + Alpelisib; first compound 0.8 µM) | relative viability (XMD8-85 + Alpelisib; first compound 2.53 µM) | relative viability (XMD8-85 + Alpelisib; first compound 8 µM) |
| --- | --- | --- | --- | --- | --- | --- | --- | --- | --- | --- | --- | --- | --- | --- | --- | --- | --- | --- | --- | --- |
| ChaGo-K-1 | 0.926 | 0.908 | 0.944 | 0.962 | 0.668 | 0.421 | 0.533 | 0.493 | 0.512 | 0.779 | 0.61 | 0.796 | 0.781 | 0.347 |  |  |  |  |  |  |
| SW 900 | 0.813 | 0.746 | 0.935 |  | 0.759 | 0.448 | 0.523 | 0.675 | 0.554 | 0.615 | 0.59 | 0.503 | 0.314 | 0.15 | 0.22 |  |  |  |  |  |
| NCI-H727 | 0.373 | 0.375 | 0.405 | 0.37 | 0.368 | 0.503 | 0.547 | 0.523 | 0.524 | 1.13 | 0.94 | 1.22 | 1.04 | 0.714 | 0.456 | 0.759 | 0.541 | 0.546 | 0.534 | 0.304 |
| NCI-H596 | 0.866 | 0.72 | 0.675 | 0.769 | 0.696 | 0.571 | 0.749 | 0.636 | 0.709 | 0.648 | 0.495 | 0.6 | 0.475 | 0.375 | 0.8 |  | 0.558 | 0.511 | 0.411 | 0.403 |
| NCI-H2347 | 0.275 | 0.312 | 0.283 | 0.298 | 0.286 | 0.357 | 0.382 | 0.388 | 0.393 | 0.724 | 0.59 | 0.689 | 0.589 | 0.36 |  | 1.03 | 1.06 | 1.03 | 1 | 0.801 |
| NCI-H2126 | 0.584 | 0.6 | 0.615 | 0.538 | 0.398 | 0.524 | 0.528 | 0.525 | 0.543 | 0.756 | 0.773 | 0.819 | 0.539 | 0.646 | 0.455 | 0.628 | 0.767 | 0.814 | 0.776 | 0.724 |
| HCC-78 | 1.14 | 1.02 | 0.735 | 0.536 | 0.402 | 0.705 | 0.84 | 0.695 | 0.665 | 0.579 |  | 0.435 | 0.443 | 0.451 | 0.46 | 0.384 | 0.405 | 0.39 | 0.3 | 0.285 |
| HARA | 0.9 | 0.78 | 0.578 | 0.21 | 0.33 | 0.455 | 0.515 | 0.427 | 0.42 | 0.545 | 0.429 | 0.525 | 0.47 | 0.127 | 0.26 | 0.932 | 0.675 | 0.911 | 0.445 | 0.27 |
| A-427 | 0.755 | 0.731 | 0.697 | 0.714 | 0.631 | 0.278 | 0.268 | 0.346 | 0.335 | 0.865 |  | 0.882 | 0.646 | 0.2 | 0.208 | 1.09 | 1.13 | 1.1 | 1.11 | 1 |
